From patent US10827755B2, “Insecticidal compositions and methods” (priority 2015, dated 2020)

Columns and labels:
Type in all cases: in vivo
[1] = test system: Western Corn Root Worm (WCR); assay: Insect feeding assay (Example 3), Western corn rootworm; design: key: A “+” score was given to samples which showed any level of stunting and/or mortality higher than that of the untreated controls; A “−” score was given to samples which showed no activity; settings: 0.1 mg/mL diet overlay, 6 days, 27° C., summary of three replicates
Description: (§1) For evaluating control of insect species, the test unit consisted of a 96-well bioassay plate filled with a species-specific artificial diet. Compounds were dissolved in DMSO and added as diet overlay to the indicated concentration, and dried/maintained overnight before infestation. Once dry, the bioassay plates were infested with a single neonate larva (nymph for lygus) per well. The bioassay plates were then held for 6 days in an incubator at 27° C. and 50% relative humidity. Sample response was then visually assessed based on mortality and stunting of the insect. […] Western corn rootworm data represents a summary of three replicates. Data for all other insect species represents a summary of two replicates.

[2] = test system: Yellow Fever Mosquito (YFM); assay: Insect feeding assay (Example 3), yellow fever mosquito; design: key: A “+” score was given to samples which showed any level of stunting and/or mortality higher than that of the untreated controls; A “−” score was given to samples which showed no activity; settings: 0.1 mginiL diet overlay, 6 days, 27° C., summary of two replicates
Description: as §1

Diamondback Moth (DBM) [3] = assay: Insect feeding assay (Example 4), diamondback moth; design: key: “+” represents mortality or stunting significantly different compared to the untreated control; “−” represents no significant difference in mortality or stunting compared to the untreated control; settings: 0.05 mg/mL diet overlay, 6 days, 27° C.
Description: (§2) For evaluating control of insect species in this example, the test unit consisted of a 96-well bioassay plate filled with species-specific artificial diet. Compounds were dissolved in DMSO and added as diet overlay to the indicated concentration and dried/maintained overnight before infestation. Once dry, the bioassay plates were infested with a single neonate larva (nymph for lygus) per well. The bioassay plates were held for 6 days in an incubator at 27° C. and 50% relative humidity. Each well was assessed for infestation and contamination. Wells that were contaminated or not infested were not included in the stunting and mortality assessment. A stunting score was reported based on the relative size of the survivors within the 8-well column with averaging across a 3 column replicate. Untreated control insects were used as a reference.

Fall Armyworm (FAW) = assay: Insect feeding assay (Example 4), fall armyworm; design: key: “+” represents mortality or stunting significantly different compared to the untreated control; “−” represents no significant difference in mortality or stunting compared to the untreated control; settings: 0.05 mg/mL diet overlay, 6 days, 27° C.
Description: as §2

Soybean Looper (SL) = assay: Insect feeding assay (Example 4), soybean looper; design: key: “+” represents mortality or stunting significantly different compared to the untreated control; “−” represents no significant difference in mortality or stunting compared to the untreated control; settings: 0.05 mg/mL diet overlay, 6 days, 27° C.
Description: as §2

[4] = test system: Western Tarnished Plantbug; assay: Insect feeding assay (Example 4), Western tarnished plantbug; design: key: “+” represents mortality or stunting significantly different compared to the untreated control; “−” represents no significant difference in mortality or stunting compared to the untreated control; settings: 0.05 mg/mL diet overlay, nymph, 6 days, 27° C.
Description: as §2

[5] = test system: Yellow Fever Mosquito (YEW); assay: Insect feeding assay (Example 4), yellow fever mosquito; design: key: “+” represents mortality or stunting significantly different compared to the untreated control; “−” represents no significant difference in mortality or stunting compared to the untreated control; settings: 0.05 mg/mL diet overlay, 6 days, 27° C.
Description: as §2

[6] = test system: Western Corn Rootworm (WCR); assay: Insect feeding assay (Example 4), Western corn rootworm; design: key: “+” represents mortality or stunting significantly different compared to the untreated control; “−” represents no significant difference in mortality or stunting compared to the untreated control; settings: 0.05 mg/mL diet overlay, 6 days, 27° C.
Description: as §2

Diamondback Moth (DBM) [7] = assay: Insect feeding assay (Example 3), diamondback moth; design: key: A “+” score was given to samples which showed any level of stunting and/or mortality higher than that of the untreated controls; A “−” score was given to samples which showed no activity; settings: 0.1 mg/mL diet overlay, 6 days, 27° C., summary of two replicates
Description: as §1

Structure (SMILES)	WCR (0.1 mg/mL) mortality and stunting score [1]	YEM (0.1 mginiL) mortality and stunting score [2]	DBM (0.05 mg/mL) mortality or stunting (Diamondback Moth (DBM) [3])	FAW (0.05 mg/mL) mortality or stunting (Fall Armyworm (FAW))	SL (0.05 mg/mL) mortality or stunting (Soybean Looper (SL))	WTP (0.05 mg/mL mortality or stunting) [4]	YFM (0.05 mg/mL) mortality or stunting [5]	WCR (0.05 mg/mL) mortality or stunting [6]	DBM (0.1 mg/mL) mortality and stunting score (Diamondback Moth (DBM) [7])
Cc1cc(C)c(-c2nc(-c3ccccc3)c(-c3ccccc3)[nH]2)c(C)c1 [I-i]	+	+	+	−	−	−	−		
Cc1ccc(C)c(-c2nc(-c3c(Cl)cccc3Cl)[nH]c2-c2ccccc2)c1 [I-ii]	+	+	+	+	+	+	+		
Cc1ccc(C)c(-c2nc(-c3c(F)cccc3Cl)[nH]c2-c2ccccc2)c1 [I-iii]		+							
COc1ccc(-c2nc(-c3ccccc3)c(-c3ccccc3)[nH]2)c(OC)c1 [I-iv]	+	+	+	−	−	−	+		
CSc1ccc(-c2nc(-c3ccc(C)cc3)c(-c3ccc(C)cc3)[nH]2)cc1 [I-ix]			+	+	+	−	−	+	
CCOc1ccccc1-c1nc(-c2ccccc2)c(-c2ccccc2)[nH]1 [I-v]	+		−	−	−	−	−		
C#CCOc1ccccc1-c1nc(-c2ccccc2)c(-c2ccccc2)[nH]1 [I-vi]			+	−	−	+	+		
Clc1cccc(-c2[nH]c(-c3ccc(Cl)cc3Cl)nc2-c2ccccc2)c1 [I-vii]			+	+	+	−	+		
COc1ccc(-c2nc(-c3ccccc3)c(-c3ccccc3)[nH]2)c(OC)c1OC [I-viii]			+	−	−	−	+	+	
O=C(c1ccc(F)cc1)c1ccc(-c2nc(-c3cccc(F)c3)[nH]c2-c2ccccc2)cc1 [I-x]			+	+	+	+	−	+	
C=CCNC(=O)c1cn(-c2ccc(C)cc2)nc1-c1ccccc1 [II-i]		+	+						+
CC1CCCCC1NC(=O)c1cn(-c2ccccc2)nc1-c1cccs1 (stereo not drawn) [II-ii]			−	−	−	−	−		+
CCOCCNC(=O)c1cn(C)nc1-c1ccccc1Cl [II-iii]		+	−	−	−	−	−		
Cn1cc(C(=O)NCCC2CCCO2)c(-c2ccccc2Cl)n1 (stereo not drawn) [II-iv]		+	−	−	−	−	−		
Cn1cc(C(=O)NC2CCSCC2)c(-c2ccccc2Cl)n1 [II-v]		+							
